In ChEMBL document CHEMBL1201861, “Genomics of Drug Sensitity in Cancer screening data, Wellcome Trust Sanger Institute”:
Where a name gives a salt, the structure may show the parent alone.

Key:
MHH-CALL-2 = assay: cells; format: functional, cell-based, Homo sapiens;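 further: growth inhibition of the cell line, read out in a cell viability assay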
Description: SANGER: Inhibition of human MHH-CALL-2 cell growth in a cell viability assay.

NCI-H1437 = assay: cells; format: functional, cell-based, Homo sapiens;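 further: growth inhibition of human NCI-H1437 cells, read out by a cell viability assay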
Description: SANGER: Inhibition of human NCI-H1437 cell growth in a cell viability assay.

SW1990 = assay: cells; format: functional, cell-based, Homo sapiens
Description: SANGER: Inhibition of human SW1990 cell growth in a cell viability assay.

HT-1376 = assay: cells; format: functional, cell-based, Homo sapiens
Description: SANGER: Inhibition of human HT-1376 cell growth in a cell viability assay.

CHP-126 = assay: cells; format: functional, cell-based, Homo sapiens
Description: SANGER: Inhibition of human CHP-126 cell growth in a cell viability assay.

LU-99A = assay: cells; format: functional, cell-based, Homo sapiens;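 further: growth inhibition of LU-99A cells, read out with a cell viability assay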
Description: SANGER: Inhibition of human LU-99A cell growth in a cell viability assay.

HT-1080 = assay: cells; format: functional, cell-based, Homo sapiens
Description: SANGER: Inhibition of human HT-1080 cell growth in a cell viability assay.

EVSA-T = assay: cells; format: functional, cell-based, Homo sapiens;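 further: growth inhibition of EVSA-T cells, read out with a cell viability assay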
Description: SANGER: Inhibition of human EVSA-T cell growth in a cell viability assay.

Ca9-22 = assay: cells; format: functional, cell-based, Homo sapiens;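 further: growth inhibition of Ca9-22 cells, read out with a cell viability assay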
Description: SANGER: Inhibition of human Ca9-22 cell growth in a cell viability assay.

NCI-H1417 = assay: cells; format: functional, cell-based, Homo sapiens;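 further: human NCI-H1417 cells, growth inhibition determined with a cell viability readout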
Description: SANGER: Inhibition of human NCI-H1417 cell growth in a cell viability assay.

DMS-153 = assay: cells; format: functional, cell-based, Homo sapiens
Description: SANGER: Inhibition of human DMS-153 cell growth in a cell viability assay.

GDM-1 = assay: cells; format: functional, cell-based, Homo sapiens;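 further: cell viability readout used to measure growth inhibition of human GDM-1 cells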
Description: SANGER: Inhibition of human GDM-1 cell growth in a cell viability assay.

HCC1937 = assay: cells; format: functional, cell-based, Homo sapiens;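 further: growth inhibition measured with a cell viability read-out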
Description: SANGER: Inhibition of human HCC1937 cell growth in a cell viability assay.

Huh-7 = assay: cells; format: functional, cell-based, Homo sapiens;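 further: HuH-7 cell growth inhibition, read out with a cell viability assay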
Description: SANGER: Inhibition of human HuH-7 cell growth in a cell viability assay.

UMUC3 = assay: cells; format: functional, cell-based, Homo sapiens;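 further: growth inhibition of human UM-UC-3 cells, read out with a cell viability assay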
Description: SANGER: Inhibition of human UM-UC-3 cell growth in a cell viability assay.

BXPC-3 = assay: cells; format: functional, cell-based, Homo sapiens;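 further: growth inhibition of human BxPC-3 cells, read out by a cell viability assay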
Description: SANGER: Inhibition of human BxPC-3 cell growth in a cell viability assay.

KYSE-70 cell line = assay: cells; format: functional, cell-based, Homo sapiens;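 further: cell viability assay read-out, with IC50 expressing suppression of KYSE-70 cell growth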
Description: SANGER: Inhibition of human KYSE-70 cell growth in a cell viability assay.

YT = assay: cells; format: functional, cell-based, Homo sapiens
Description: SANGER: Inhibition of human YT cell growth in a cell viability assay.

LB647-SCLC = assay: cells; format: functional, cell-based, Homo sapiens;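 further: cell growth inhibition, read out by a viability assay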
Description: SANGER: Inhibition of human LB647-SCLC cell growth in a cell viability assay.

MDA-MB-134-VI = assay: cells; format: functional, cell-based, Homo sapiens
Description: SANGER: Inhibition of human MDA-MB-134-VI cell growth in a cell viability assay.

CAKI-1 = assay: cells; format: functional, cell-based, Homo sapiens;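 further: growth inhibition of CAKI-1 cells, measured by a cell viability assay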
Description: SANGER: Inhibition of human CAKI-1 cell growth in a cell viability assay.

G-402 = assay: cells; format: functional, cell-based, Homo sapiens
Description: SANGER: Inhibition of human G-402 cell growth in a cell viability assay.

GP5d = assay: cells; format: functional, cell-based, Homo sapiens;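 further: growth inhibition of human GP5d cells, read out with a cell viability assay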
Description: SANGER: Inhibition of human GP5d cell growth in a cell viability assay.

5637 = assay: cells; format: functional, cell-based, Homo sapiens
Description: SANGER: Inhibition of human 5637 cell growth in a cell viability assay.

SN12C = assay: cells; format: functional, cell-based, Homo sapiens;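 further: growth inhibition of human SN12C cells, measured by a cell viability assay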
Description: SANGER: Inhibition of human SN12C cell growth in a cell viability assay.

OVCAR-3 = assay: cells; format: functional, cell-based, Homo sapiens;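 further: growth inhibition of human OVCAR-3 cells, determined by a cell viability assay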
Description: SANGER: Inhibition of human OVCAR-3 cell growth in a cell viability assay.

NCCIT = assay: SANGER: Inhibition of human NCCIT cell growth in a cell viability assay.; format: functional, cell-based
MHH-ES-1 = assay: cells; format: functional, cell-based, Homo sapiens
Description: SANGER: Inhibition of human MHH-ES-1 cell growth in a cell viability assay.

NCI-H2141 = assay: cells; format: functional, cell-based, Homo sapiens;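 further: growth inhibition of human NCI-H2141 cells, read out with a cell viability assay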
Description: SANGER: Inhibition of human NCI-H2141 cell growth in a cell viability assay.

A 172 = assay: cells; format: functional, cell-based, Homo sapiens;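 further: growth inhibition of A172 cells, measured with a cell viability readout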
Description: SANGER: Inhibition of human A172 cell growth in a cell viability assay.

HT1197 = assay: cells; format: functional, cell-based, Homo sapiens, HT-1197
Description: SANGER: Inhibition of human HT-1197 cell growth in a cell viability assay.

NCI-H187 = assay: cells; format: functional, cell-based, Homo sapiens;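 further: growth inhibition of NCI-H187 cells, read out as cell viability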
Description: SANGER: Inhibition of human NCI-H187 cell growth in a cell viability assay.

BL-41 = assay: cells; format: functional, cell-based, Homo sapiens;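 further: growth inhibition of human BL-41 cells, read out with a cell viability assay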
Description: SANGER: Inhibition of human BL-41 cell growth in a cell viability assay.

C-33-A = assay: cells; format: functional, cell-based, Homo sapiens;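 further: cell viability assay measuring growth inhibition of C-33-A cells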
Description: SANGER: Inhibition of human C-33-A cell growth in a cell viability assay.

LN-405 = assay: cells; format: functional, cell-based, Homo sapiens
Description: SANGER: Inhibition of human LN-405 cell growth in a cell viability assay.

SK-OV-3 = assay: cells; format: functional, cell-based, Homo sapiens;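 further: growth inhibition of SK-OV-3 human cells, read out with a cell viability assay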
Description: SANGER: Inhibition of human SK-OV-3 cell growth in a cell viability assay.

NCI-H1573 = assay: cells; format: functional, cell-based, Homo sapiens;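 further: growth inhibition of NCI-H1573 cells, read out with a cell viability assay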
Description: SANGER: Inhibition of human NCI-H1573 cell growth in a cell viability assay.

NCI-H2228 = assay: cells; format: functional, cell-based, Homo sapiens;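 further: growth inhibition of human NCI-H2228 cells, read out by a cell viability assay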
Description: SANGER: Inhibition of human NCI-H2228 cell growth in a cell viability assay.

IGR-1 = assay: cells; format: functional, cell-based, Homo sapiens;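 further: growth inhibition of human IGR-1 cells, read out with a cell viability assay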
Description: SANGER: Inhibition of human IGR-1 cell growth in a cell viability assay.

639-V = assay: cells; format: functional, cell-based, Homo sapiens;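 further: growth inhibition of 639-V cells, read out with a cell viability assay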
Description: SANGER: Inhibition of human 639-V cell growth in a cell viability assay.

KP-N-YN = assay: cells; format: functional, cell-based, Homo sapiens;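 further: growth inhibition of KP-N-YN cells, read out with a cell viability assay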
Description: SANGER: Inhibition of human KP-N-YN cell growth in a cell viability assay.

SK-MEL-28 = assay: cells; format: functional, cell-based, Homo sapiens;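 further: growth inhibition of human SK-MEL-28 cells, read out with a cell viability assay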
Description: SANGER: Inhibition of human SK-MEL-28 cell growth in a cell viability assay.

SK-MEL3 = assay: cells; format: functional, cell-based, Homo sapiens, SK-MEL-3;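 further: growth inhibition of human SK-MEL-3 cells, read out with a cell viability assay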
Description: SANGER: Inhibition of human SK-MEL-3 cell growth in a cell viability assay.

SW756 = assay: cells; format: functional, cell-based, Homo sapiens;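 further: growth inhibition of human SW756 cells, read out with a cell viability assay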
Description: SANGER: Inhibition of human SW756 cell growth in a cell viability assay.

T98G = assay: cells; format: functional, cell-based, Homo sapiens;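 further: growth inhibition of T98G cells, read out by a cell viability assay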
Description: SANGER: Inhibition of human T98G cell growth in a cell viability assay.

For COC1=CC(c2cc3ccccc3[nH]2)=N/C1=C\c1[nH]c(C)cc1C [OBATOCLAX MESYLATE], the IC50 (MHH-CALL-2; Homo sapiens, MHH-CALL-2) was 0.609 µM, the IC50 (NCI-H1437; Homo sapiens, NCI-H1437) was 0.408 µM and the IC50 (SW1990; Homo sapiens, SW1990) was 0.239 µM. The IC50 (HT-1376; Homo sapiens, HT-1376) was 0.127 µM, the IC50 (CHP-126; Homo sapiens, CHP-126) was 1.57 µM and the IC50 (LU-99A; Homo sapiens, LU-99A) was 0.784 µM. For the same compound, the IC50 (HT-1080; Homo sapiens, HT-1080) was 0.511 µM, the IC50 (EVSA-T; Homo sapiens, EVSA-T) was 0.817 µM and the IC50 (Ca9-22; Homo sapiens, Ca9-22) was 0.111 µM. The IC50 (NCI-H1417; Homo sapiens, NCI-H1417) was 0.265 µM, the IC50 (DMS-153; Homo sapiens, DMS-153) was 2.17 µM and the IC50 (GDM-1; Homo sapiens, GDM-1) was 0.685 µM. It also gave an IC50 (HCC1937; Homo sapiens, HCC1937) of 0.464 µM, an IC50 (Huh-7; Homo sapiens, Huh-7) of 0.379 µM and an IC50 (UMUC3; Homo sapiens, UMUC3) of 0.291 µM. It also gave an IC50 (BXPC-3; Homo sapiens, BXPC-3) of 0.0746 µM, an IC50 (KYSE-70 cell line; Homo sapiens, KYSE-70) of 0.0695 µM and an IC50 (YT; Homo sapiens, YT) of 0.0734 µM. The IC50 (LB647-SCLC; Homo sapiens, LB647-SCLC) was 15.7 µM, the IC50 (MDA-MB-134-VI; Homo sapiens, MDA-MB-134-VI) was 4.03 µM and the IC50 (CAKI-1; Homo sapiens, CAKI-1) was 1.72 µM. It also gave an IC50 (G-402; Homo sapiens, G-402) of 0.565 µM, an IC50 (GP5d; Homo sapiens, GP5d) of 0.225 µM and an IC50 (5637; Homo sapiens) of 0.0837 µM. For the same compound, the IC50 (SN12C; Homo sapiens, SN12C) was 0.886 µM, the IC50 (OVCAR-3; Homo sapiens, OVCAR-3) was 0.516 µM and the IC50 (NCCIT; Homo sapiens, NCCIT) was 1.38 µM. The IC50 (MHH-ES-1; Homo sapiens, MHH-ES-1) was 0.186 µM, the IC50 (NCI-H2141; Homo sapiens, NCI-H2141) was 1.19 µM and the IC50 (A 172; Homo sapiens, A 172) was 0.887 µM. The IC50 (HT1197; Homo sapiens, HT1197) was 0.395 µM, the IC50 (NCI-H187; Homo sapiens, NCI-H187) was 5.93 µM and the IC50 (BL-41; Homo sapiens, BL-41) was 0.0622 µM. The IC50 (C-33-A; Homo sapiens, C-33-A) was < 0.0625 µM, the IC50 (LN-405; Homo sapiens, LN-405) was 1.39 µM and the IC50 (SK-OV-3; Homo sapiens, SK-OV-3) was 0.524 µM. The IC50 (NCI-H1573; Homo sapiens, NCI-H1573) was 3.2 µM, the IC50 (NCI-H2228; Homo sapiens, NCI-H2228) was 0.893 µM and the IC50 (IGR-1; Homo sapiens, IGR-1) was < 0.0625 µM. The IC50 (639-V; Homo sapiens, 639-V) was 0.156 µM, the IC50 (KP-N-YN; Homo sapiens, KP-N-YN) was > 16 µM and the IC50 (SK-MEL-28; Homo sapiens, SK-MEL-28) was 1.23 µM. For the same compound, the IC50 (SK-MEL3; Homo sapiens, SK-MEL3) was < 0.0625 µM, the IC50 (SW756; Homo sapiens, SW756) was 0.0382 µM and the IC50 (T98G; Homo sapiens, T98G) was 5.07 µM.
Compound BLEOMYCIN has an IC50 (MHH-CALL-2; mhh-call-2) of 0.535 µM, an IC50 (NCI-H1437; nci-h1437) of 0.743 µM and an IC50 (SW1990; sw1990) of 4.24 µM. The IC50 (HT-1376; ht-1376) was 9.74 µM, the IC50 (CHP-126; chp-126) was 1.27 µM and the IC50 (LU-99A; lu-99a) was 0.00422 µM. It also gave an IC50 (HT-1080; ht-1080) of 0.234 µM, an IC50 (EVSA-T; evsa-t) of 861 µM and an IC50 (Ca9-22; ca9-22) of 0.746 µM. It also gave an IC50 (NCI-H1417; nci-h1417) of 30.4 µM, an IC50 (DMS-153; dms-153) of 165 µM and an IC50 (GDM-1; gdm-1) of 0.228 µM. The IC50 (HCC1937; hcc1937) was 0.000254 µM, the IC50 (Huh-7; huh-7) was 2.43 µM and the IC50 (UMUC3; umuc3) was 0.956 µM. It also gave an IC50 (BXPC-3; bxpc-3) of 3.81 µM, an IC50 (KYSE-70 cell line; kyse-70) of 1.38 µM and an IC50 (YT; yt) of 1.32 µM. The IC50 (LB647-SCLC; lb647-sclc) was 3.14 µM, the IC50 (MDA-MB-134-VI; mda-mb-134-vi) was 340 µM and the IC50 (CAKI-1; caki-1) was 0.62 µM. It also gave an IC50 (G-402; g-402) of 0.0765 µM, an IC50 (GP5d; gp5d) of 15.6 µM and an IC50 5637 of 0.029 µM. For the same compound, the IC50 (SN12C; sn12c) was 315 µM, the IC50 (OVCAR-3; ovcar-3) was 123 µM and the IC50 (NCCIT; nccit) was 1.07 µM. The IC50 (MHH-ES-1; mhh-es-1) was 0.0436 µM, the IC50 (NCI-H2141; nci-h2141) was 36.1 µM and the IC50 (A 172; a 172) was 39.7 µM. The IC50 (HT1197; ht-1197) was 2.74 µM, the IC50 (NCI-H187; nci-h187) was 8790 µM and the IC50 (BL-41; bl-41) was 14.2 µM. It also gave an IC50 (C-33-A; c-33-a) of 0.432 µM, an IC50 (LN-405; ln-405) of 402 µM and an IC50 (SK-OV-3; sk-ov-3) of 4.88 µM. For the same compound, the IC50 (NCI-H1573; nci-h1573) was 268 µM, the IC50 (NCI-H2228; nci-h2228) was 0.955 µM and the IC50 (IGR-1; igr-1) was 2.35 µM. The IC50 (639-V; 639-v) was 0.22 µM, the IC50 (KP-N-YN; kp-n-yn) was 26.3 µM and the IC50 (SK-MEL-28; sk-mel-28) was 1860 µM. For the same compound, the IC50 (SK-MEL3; sk-mel-3) was 22.2 µM, the IC50 (SW756; sw756) was 11.4 µM and the IC50 (T98G; t98g) was 63.7 µM.
